Measurements reported in publication doi:10.1101/2024.12.15.628575v1 (biorxiv, 2024).
Like-named read-outs stand apart in the source and are kept apart here.

Key:
human CPT1a [1] = target: T1, human CPT1a (Homo sapiens, UniProt P50416); test: DTNB colorimetric CoA release assay, […] nm, transfected Expi293 pellet extract; assay type: biochemical
T1 sequence (P50416 2-773): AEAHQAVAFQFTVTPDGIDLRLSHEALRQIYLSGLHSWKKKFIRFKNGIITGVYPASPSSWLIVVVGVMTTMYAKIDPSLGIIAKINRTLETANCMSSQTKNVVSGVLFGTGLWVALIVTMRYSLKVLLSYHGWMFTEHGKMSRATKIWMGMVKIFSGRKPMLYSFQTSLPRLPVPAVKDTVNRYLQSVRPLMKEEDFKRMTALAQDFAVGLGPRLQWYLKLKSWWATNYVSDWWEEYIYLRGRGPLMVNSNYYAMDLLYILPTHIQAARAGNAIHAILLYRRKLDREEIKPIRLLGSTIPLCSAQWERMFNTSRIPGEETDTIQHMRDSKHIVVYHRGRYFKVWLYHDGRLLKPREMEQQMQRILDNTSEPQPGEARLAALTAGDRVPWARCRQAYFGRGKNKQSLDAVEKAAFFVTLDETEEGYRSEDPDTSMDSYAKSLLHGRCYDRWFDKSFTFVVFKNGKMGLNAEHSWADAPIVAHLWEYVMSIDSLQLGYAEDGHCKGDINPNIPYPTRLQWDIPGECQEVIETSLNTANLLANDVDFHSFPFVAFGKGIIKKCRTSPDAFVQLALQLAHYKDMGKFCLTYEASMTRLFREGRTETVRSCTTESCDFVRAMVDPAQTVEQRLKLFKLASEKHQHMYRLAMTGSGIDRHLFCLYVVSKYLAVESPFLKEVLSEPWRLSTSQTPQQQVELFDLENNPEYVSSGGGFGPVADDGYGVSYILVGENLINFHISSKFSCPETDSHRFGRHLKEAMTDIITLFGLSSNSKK

human CPT1a [2] = target: T1, human CPT1a; test: as above; assay type: cell-based

SMILES: CN(C)CCCN1c2ccccc2Sc2ccc(Cl)cc21 [chlorpromazine]
- IC50 (human CPT1a [1]): 179 µM

SMILES: O=C(O)[C@@]1(CCCCCCOc2ccc(Cl)cc2)CO1 [etomoxir]
- IC50 (human CPT1a [1]): 4710 µM

SMILES: C1CCC(C(CC2CCCCN2)C2CCCCC2)CC1 (stereo not drawn) [perhexiline]
- IC50 (human CPT1a [2]): 319 µM
